From patent US20050124497A1, “Delta1-pyrrolines and their use as pest control agents” (priority 2002, published 2005) come the findings set out here.

Type in all cases: in vivo
In test [1] the test system is Meloidogyne incognita egg/larvae suspension. As to the kind of experiment: Meloidogyne test. Conditions: 20 ppm active compound, lettuce in sand, nematicidal action by gall formation. The method, then: To produce a suitable preparation of active compound, 1 part by weight of active compound is mixed with the stated amounts of solvent and emulsifier, and the concentrate is diluted with water to the desired concentration.
Containers are filled with sand, solution of active compound, Meloidogyne incognita egg/larvae suspension and lettuce seeds. The lettuce seeds germinate and the plants develop. On the roots, galls are formed.
After the desired period of time, the nematicidal action is determined in % by gall formation. 100% means that no galls were found; 0% means that the number of galls on the treated plants corresponds to that of the untreated control.

Test [2] concerns caterpillars of the diamondback moth (Plutella xylostella). In words: Plutella test. Conditions: 100 ppm active compound, cabbage leaves dipped, kill after 7 d. The procedure: (§1) To produce a suitable preparation of active compound, 1 part by weight of active compound is mixed with the stated amounts of solvent and emulsifier, and the concentrate is diluted with emulsifier-containing water to the desired concentration.
Cabbage leaves (Brassica oleracea) are treated by being dipped into the preparation of active compound of the desired concentration and are populated with caterpillars of the diamondback moth (Plutella xylostella) while the leaves are still moist.
(§2) After the desired period of time, the kill in % is determined. 100% means that all caterpillars have been killed; 0% means that none of the caterpillars have been killed.

The test system of test [3] is caterpillars of the armyworm (Spodoptera exigua). As to the kind of experiment: Spodoptera exigua test. Conditions: 100 ppm active compound, cabbage leaves dipped, kill after 7 d. The procedure:
as §1
Cabbage leaves (Brassica oleracea) are treated by being dipped into the preparation of active compound of the desired concentration and are populated with caterpillars of the armyworm (Spodoptera exigua) while the leaves are still moist.
as §2

With `Fc1cccc(F)c1C1=NC(c2ccc(-c3nc4cc(Br)ccc4o3)cc2)CC1` (stereo not drawn) [drawing 38], the “Efficacy in % after 7 d” value in test [1] stood at 80%.

With `Fc1cc(-c2nc3cc(-c4ccccc4)ccc3o2)ccc1C1CCC(c2c(F)cccc2F)=N1` (stereo not drawn) [drawing 46], in test [2], the “Efficacy in % after 7 d” value was found to be 100%.

In the case of `Fc1cc(-c2nc3cc(-c4ccccc4)ccc3o2)ccc1C1CCC(c2c(F)cccc2F)=N1` (stereo not drawn) [drawing 47], in test [3], the “Efficacy in % after 7 d” value is listed as 100%.
